# Several values for one entry are separate records, joined by “and”; a condition that tells them apart may be missing. Equal values may be shown once. Read-outs that look alike come from different tables or passages of the source.
# Key:
# [1] = target: T1, Cel-EAT-2 and Cel-EAT-18c nAChR (Caenorhabditis elegans, UniProt Q9U298); assay: Two-electrode voltage-clamp of Cel-EAT-2 + Cel-EAT-18c nAChR expressed in Xenopus oocytes; assay type: cell-based; details: for Emax at 100 µM: read-out: current response normalized to the control 100 μM ACh current (Imax)
# T1 sequence (Q9U298 22-474): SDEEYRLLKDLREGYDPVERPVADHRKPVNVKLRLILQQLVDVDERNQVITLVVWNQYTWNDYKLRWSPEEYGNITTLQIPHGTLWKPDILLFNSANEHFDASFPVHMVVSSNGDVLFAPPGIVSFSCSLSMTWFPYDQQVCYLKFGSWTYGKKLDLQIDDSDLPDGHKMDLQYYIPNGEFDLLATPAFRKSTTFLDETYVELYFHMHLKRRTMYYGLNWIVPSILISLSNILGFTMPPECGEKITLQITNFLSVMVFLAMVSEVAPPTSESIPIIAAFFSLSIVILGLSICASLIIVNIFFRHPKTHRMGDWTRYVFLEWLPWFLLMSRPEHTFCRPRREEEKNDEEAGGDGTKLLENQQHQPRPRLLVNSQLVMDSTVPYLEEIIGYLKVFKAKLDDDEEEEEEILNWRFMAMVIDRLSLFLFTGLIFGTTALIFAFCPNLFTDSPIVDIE
# [2] = test system: nAChRs expressed in the pharynx of A. suum; assay: tissue or blood; assay type: cell-based; details: for Emax: read-out: % change in membrane conductance (δG) normalized to the ACh δG; for maximal response (δG) of ACh in the presence of antagonist / normalized response (δG) to muscarinic agonists, control ACh = 100%: mean±SE; for normalized response (δG) to muscarinic agonists, control ACh = 100%: 100 μM, 10 s application, n=4
# Description: A. suum pharyngeal dissections and electrophysiology recordings were adapted from Martin [49]. Briefly, pharynx was dissected out from the head region of the worm and mounted on Sylgard (Sigma-Aldrich Inc., USA)—lined in a double jacketed bath chamber maintained at 28°C. The muscle layer surrounding the anterior 3rd of the pharynx was preserved for anchoring. The intestine attached to the posterior end of the pharynx was used for stretching and pinning down. The preparation was continuously perfused with calcium-free Ascaris Perienteric Fluid-Ringer (calcium-free APF-Ringer) composition (mM): NaCl 23, Na-acetate 110, KCl 24, MgCl2 11, glucose 11, and HEPES 5; NaOH or acetic acid was added to adjust the pH to 7.6. […] The rate of localized perfusion was 3.5–4 ml min^−1 through a 20-gauge needle, which was placed directly above the recording region of the pharynx. […] We used 3 M potassium acetate in our micropipettes to get the final resistances of 4–7 MΩ for the voltage sensing and 0.5–1 MΩ for the current injecting electrode for current-clamp recordings. The current-injecting electrode injected hyperpolarizing step currents of −1000 nA for 500 ms at 0.3 Hz.
# We constructed the sigmoidal concentration-response plots by fitting the data by nonlinear regression to determine the pEC50 and the maximal response (Rmax). Extra sum of squares F-test was used to test statistical differences between pEC50, slope, and maximal response. The significance levels were set to P<0.05.
# In applications containing arecoline and pilocarpine, we used mecamylamine, a nAChR antagonist (30µM) to inhibit nAChRs and to allow only mAChR activation.
# Asu-EAT-2 nAChR = Asu-EAT-2 nAChR (Ascaris suum, UniProt F1L9Y6); assay: cell-based; assay type: cell-based, A. suum
# Chain of Asu-EAT-2 nAChR (F1L9Y6 entry or part of it): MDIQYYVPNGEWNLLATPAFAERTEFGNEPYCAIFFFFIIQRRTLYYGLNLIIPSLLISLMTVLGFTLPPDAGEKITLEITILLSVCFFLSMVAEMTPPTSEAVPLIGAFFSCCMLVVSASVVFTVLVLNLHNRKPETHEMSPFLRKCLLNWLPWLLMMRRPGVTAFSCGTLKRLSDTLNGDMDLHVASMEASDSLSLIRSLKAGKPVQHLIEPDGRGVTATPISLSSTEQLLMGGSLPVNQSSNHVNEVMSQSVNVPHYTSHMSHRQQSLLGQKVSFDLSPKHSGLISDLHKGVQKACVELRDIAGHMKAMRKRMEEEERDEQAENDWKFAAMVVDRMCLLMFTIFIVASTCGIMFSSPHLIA
# Chain of Asu-EAT-2 nAChR (F1L1D9 entry or part of it, further chain): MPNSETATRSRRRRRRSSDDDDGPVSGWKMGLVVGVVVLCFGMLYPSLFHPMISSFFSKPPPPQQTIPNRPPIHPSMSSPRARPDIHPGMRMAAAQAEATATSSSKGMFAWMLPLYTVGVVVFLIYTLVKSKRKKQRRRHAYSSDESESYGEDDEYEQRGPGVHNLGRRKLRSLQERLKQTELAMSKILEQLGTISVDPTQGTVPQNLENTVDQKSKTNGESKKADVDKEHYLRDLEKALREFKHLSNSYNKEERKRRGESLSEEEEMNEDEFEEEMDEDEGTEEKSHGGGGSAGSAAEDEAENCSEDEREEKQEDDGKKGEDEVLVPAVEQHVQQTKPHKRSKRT
# [3] = test system: A. suum muscarinic receptor; set-up: method as in earlier work; details: all used at 100 µM; ref 1 Kimber M.J. et al. Int J Parasitol 39: 1215-1222 (2009); cited from earlier work
# [4] = test system: α3β4, α3β2, α4β4 and α4β2 vertebrate nAChRs; details: read-out: IC50 of reversible channel block; cited from earlier work
# [5] = target: T2, Cel-EAT-2 and Cel-EAT-18c receptor (Cel-EAT-2 nAChR) (Caenorhabditis elegans, UniProt Q9U298); assay: Two-electrode voltage-clamp of oocytes expressing Cel-EAT-2 with Cel-EAT-18c; agonist peak currents normalized to 100 uM ACh and fitted to the Hill equation.; assay type: cell-based, Xenopus laevis oocytes; details: n = 6; read-out: pEC50 (mean±SEM) (converted)
# T2 construct: homomeric EAT-2 co-expressed with Cel-EAT-18c in Xenopus laevis oocytes
# T2 sequence (Q86DB4 entry or part of it, one chain of several): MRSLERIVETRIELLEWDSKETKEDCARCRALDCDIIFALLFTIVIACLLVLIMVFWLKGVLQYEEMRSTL
# Description: Oocyte injections and two-electrode electrophysiology recordings were performed as previously described [48].
# GraphPad Prism 8.0 software (GraphPad Software Inc., USA) was used to analyze the data. […] We used One-way analysis of variance (ANOVA) and Extra sum of squares F-test to test statistical differences (statistically different if p<0.05). Tukeys’ multiple comparison was used as a post-hoc test.
# [6] = agonist concentration-response, mean±SEM
# [7] = read-out: current response normalized to the control 100 μM ACh current, mean±SEM, n≥5
# [8] = read-out: current response normalized to the control 100 μM ACh current
smiles,measurement,setting,value
"CC(=O)OCC[N+](C)(C)C [ACh, acetylcholine]",Hill slope (nH),[1]; [6],1.9±0.3 and 1.9 ± 0.2
same,Emax,[2]; Ascaris suum,100%
same,EC50,"[2]; Ascaris suum, concentration-conductance curve, 1-1000 μM applied for 10 s, mean±SEM, read-out: pEC50 (converted)",10 µM
same,maximal response,[2]; agonist concentration-response curve,105.3 ± 2.5 μS
same,Hill slope (nH),"[2]; concentration-conductance curve, mean±SEM",1.8±0.3
same,times more potent on Asu-EAT-2 nAChR compared to Cel-EAT-2,Asu-EAT-2 nAChR,≈ 9 times
same,Hill slope (nH),"Asu-EAT-2 nAChR; ACh concentration-response, mean±SEM, n=6",3.5 ± 1.1
same,Emax at 100 µM,Asu-EAT-2 nAChR; [7],100%
"CO[C@H]1CC=C2CCN3CCC4=C(CC(=O)OC4)[C@]23C1 [DHβE, Dihydro-β-erythroidine]",effect on sensitivity and efficacy of the receptor for ACh,[1],not altered
same,Imax of ACh concentration-response in the presence of antagonist,[1]; antagonist 30 μM,91.1±4.1%
same,% inhibition of 100 μM ACh membrane conductance (δG),[2],17.9±5.0%
same,maximal response (δG) of ACh in the presence of antagonist,[2]; DHβE 30 μM,89.7±3.0 μS
same,mean % inhibition of ACh (100 μM) mediated currents,Asu-EAT-2 nAChR,66±8.4%
C[N+]1(C)CCN(c2ccccc2)CC1 [DMPP],current response normalized to the control 100 μM ACh current (Imax),"[1]; agonist 100 μM, mean±SEM, n≥6",failed to respond
same,Emax at 100 µM,"[1]; agonist 100 μM, mean±SEM, n≥6",0%
same,Emax,[2]; Ascaris suum,12 ± 2.9%
same,Emax,Asu-EAT-2 nAChR; [7],6.6 ± 1.9%
"Cc1ccc(C[N+](C)(C)C)o1 [MFI, 5-methylfurmethiodide]","normalized response (δG) to muscarinic agonists, control ACh = 100%",[2],4.0±0.6%
C#Cc1cncc([C@@H]2CCCN2C)c1 [SIB 1508Y],Emax at 100 µM,"[1]; agonist 100 μM, mean±SEM, n≥6",0%
c1cncc([C@@H]2CCCCN2)c1 [anabasine],Emax at 100 µM,"[1]; agonist 100 μM, mean±SEM, n≥6",0%
COC(=O)C1=CCCN(C)C1 [arecoline],"normalized response (δG) to muscarinic agonists, control ACh = 100%",[2]; in the presence of mecamylamine 30 μM,2.6±2.0%
same,response relative to ACh (rank order series of muscarinic agonists),[3],76%
CN1[C@@H]2CC[C@H]1C[C@@H](OC(=O)C(CO)c1ccccc1)C2 (stereo partly shown) [atropine],IC50,[4],4 to 10 µM
C[N+](C)(CCOc1ccccc1)Cc1ccccc1 [bephenium],current response normalized to the control 100 μM ACh current (Imax),"[1]; agonist 100 μM, mean±SEM, n≥6",did not activate the receptor
same,Emax at 100 µM,"[1]; agonist 100 μM, mean±SEM, n≥6",0%
same,Emax,[2]; Ascaris suum,7.2 ± 3.5%
same,current response normalized to the control 100 μM ACh current,"Asu-EAT-2 nAChR; mean±SEM, n≥5",failed to activate the receptor
same,Emax,Asu-EAT-2 nAChR; [7],0.1 ± 0.1%
CC(C[N+](C)(C)C)OC(N)=O (stereo not shown) [bethanechol],response relative to ACh (rank order series of muscarinic agonists),[3],58%
CCCC(=O)OCC[N+](C)(C)C [butyrylcholine],current response normalized to the control 100 μM ACh current (Imax),"[1]; agonist 100 μM, mean±SEM, n≥6",50.0±5.0%
same,pEC50,"[1]; agonist concentration-response, 100 μM ACh as internal standard, mean±SEM",3.9±0.1
same,Hill slope (nH),[1]; [6],2.8±1.8
same,EC50,[5],126 µM
C[N+](C)(C)CCOC(N)=O [carbachol],Hill slope (nH),[1]; [6],2.1±0.3
same,Emax at 100 µM,"[1]; agonist 100 μM, mean±SEM, n≥6",37 ± 3.4%
same,EC50,[1]; read-out: pEC50 (converted),398 µM
same,response relative to ACh (rank order series of muscarinic agonists),[3],80%
C[N+](C)(C)CCO [choline],Emax,[2]; Ascaris suum,0%
same,Emax,Asu-EAT-2 nAChR; [8],0%
O=c1cccc2n1C[C@@H]1CNC[C@H]2C1 [cytisine],Emax at 100 µM,[1],0%
same,Emax,[2]; Ascaris suum,71.2 ± 5%
same,Emax,Asu-EAT-2 nAChR; [8],81 ± 5.2%
"COc1cc2c3cc1Oc1cc(ccc1O)C[C@@H]1c4c(cc(OC)c(O)c4Oc4ccc(cc4)C[C@@H]3N(C)CC2)CC[N+]1(C)C [d-TC, d-tubocurarine]",inhibition at 30 µM,"[1]; read-out: reduction (inhibition) in the mean ACh response, 30 μM d-tubocurarine",~98%
same,% inhibition of 100 μM ACh membrane conductance (δG),[2],94.6±0.2%
same,mode of antagonism of the pharyngeal ACh response,"[2]; antagonist 10 μM, ACh pEC50 unchanged, maximal response inhibited",non-competitive antagonists
same,maximal response (δG) of ACh in the presence of antagonist,[2]; antagonist 10 μM,23.0±3.0 μS
CN1C(=O)[C@]23C[C@H]4C(C)(C)[C@]5(CNc6c5ccc5c6OC=CC(C)(C)O5)C[C@@]41CN2CC[C@@]3(C)O [derquantel],Imax of ACh concentration-response in the presence of antagonist,[1]; antagonist 10 μM,68.4±2.1%
same,% inhibition of 100 μM ACh membrane conductance (δG),[2],30.6±7.0%
same,mean % inhibition of ACh (100 μM) mediated currents,Asu-EAT-2 nAChR,72.0±3.4%
Clc1ccc(C2CC3CCC2N3)cn1 (stereo not shown) [epibatidine],Emax at 100 µM,"[1]; agonist 100 μM, mean±SEM, n≥6",25 ± 1.5%
same,% change in membrane conductance (δG) normalized to the ACh δG,"[2]; normalized to 100 μM ACh (10 s), mean±SEM, n≥4",31.0±3.0%
same,Emax,Asu-EAT-2 nAChR; [7],77 ± 4.2%

# From paper PMC7173930, “EAT-18 is an essential auxiliary protein interacting with the non-alpha nAChR subunit EAT-2 to form a functional receptor” (PLoS Pathogens, 2020)
